pIC50, pKd: −log10 of the molar value.
Tests used:
[1] = biological target: TYK2 (JH2 domain) (Homo sapiens (Human), UniProt P29597); test: TYK2 JH2 domain binding assay (DiscoverX KINOMEscan); details: 11-point 3-fold dilution, duplicate
[2] = tested on: INFα induced pSTAT5 in human PBMC; test: INFα induced pSTAT5 in human PBMC; assay type: cell-based; details: human PBMC, INFα 5000 units/ml; read-out: p-STAT5 IC50
[3] = biological target: JAK2 (JH1 domain) (Homo sapiens (Human), UniProt O60674); test: JAK2 JH1 domain binding assay (KINOMEscan)
Sequence of JAK2 (JH1 domain) (O60674 849-1124): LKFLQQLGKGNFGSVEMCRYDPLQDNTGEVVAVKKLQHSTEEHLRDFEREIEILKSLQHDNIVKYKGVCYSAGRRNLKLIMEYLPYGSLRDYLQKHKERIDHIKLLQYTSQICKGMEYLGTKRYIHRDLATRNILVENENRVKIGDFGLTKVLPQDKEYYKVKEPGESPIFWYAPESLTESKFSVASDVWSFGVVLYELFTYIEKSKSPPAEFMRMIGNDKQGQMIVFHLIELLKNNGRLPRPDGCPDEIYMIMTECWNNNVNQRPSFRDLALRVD

[4] = biological target: JAK1 (JH2 domain) (Homo sapiens (Human), UniProt P23458); test: JAK1 JH2 domain binding assay (KINOMEscan); details: KINOMEscan; read-out: JAK1 (JH2 domain) binding Kd
Sequence of JAK1 (JH2 domain) (P23458 583-855): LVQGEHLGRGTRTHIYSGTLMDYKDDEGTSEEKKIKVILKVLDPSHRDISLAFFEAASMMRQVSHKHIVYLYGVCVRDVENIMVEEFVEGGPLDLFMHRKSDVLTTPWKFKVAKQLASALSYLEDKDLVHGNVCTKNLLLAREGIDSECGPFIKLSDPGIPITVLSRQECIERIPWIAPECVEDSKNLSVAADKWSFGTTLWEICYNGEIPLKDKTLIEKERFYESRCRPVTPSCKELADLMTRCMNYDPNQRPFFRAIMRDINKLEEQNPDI

[5] = tested on: INFα induced pSTAT3 in human PBMC; test: INFα induced pSTAT3 in human PBMC; assay type: cell-based; details: human PBMC, INFα 5000 units/ml; read-out: p-STAT3 IC50
Procedure: Fresh Human PBMCs were resuspended in RPMI 1640 medium with 10% FBS. Cells were seeded in a round bottom 96-well plate at the concentration of 200,000 cells/well. A 10-point dilution series of test compound (top dose 10 uM, 1:5 dilution) was added to the well using the liquid dispenser (Tecan D300e) and incubated for 1 hour at 37 C. Then human INFα recombinant protein (R&D Systems) was added to the well at the final concentration of 5000 units/ml and incubated for 15 minutes at 37 C. Cell lysates were prepared and analyzed by Phospho STAT3 (Tyr705) cellular kit (Cisbio) or Phospho STAT5 (Tyr693) Kit (Meso Scale Discovery) following manufacturer's protocol.
For calculation of the inhibition rate, the relative pSTAT signal of each well=pSTAT signal of each well−the average pSTAT signal of baseline. The inhibition %=(the average pSTAT signal of INFα treatment wells−the relative of pSTAT signal in each compound containing well)/the average pSTAT signal of INFα treatment wells*100%
The curve was plotted as the inhibition % (y-axis) vs. compounds concentration (x-axis) and was fitted with log(inhibitor) vs. normalized response—Variable slope by GraphPad Prism7.0.

[6] = tested on: IL12-induced p-STAT4 in human PBMC; test: IL-12 induced pSTAT4 in human PBMC; assay type: cell-based; details: human PBMC, IL-12 10 ng/ml; read-out: p-STAT4 IC50
Procedure: Cells were seeded in a round bottom 96-well plate at the concentration of 200,000 cells/well. A 10-point dilution series of test compound (top dose 10 uM, 1:5 dilution) was added to the well using the liquid dispenser (Tecan D300e) and incubated for 1 hour at 37 C. Then human IL-12 recombinant protein (R&D Systems) was added to the well at the final concentration of 10 ng/ml and incubated for 15 minutes at 37 C. Cell lysates were prepared and analyzed by Phospho STAT4 (Tyr693) Kit (Meso Scale Discovery) following manufacturer's protocol.
For calculation of the inhibition rate, the relative pSTAT4 signal of each well=pSTAT4 signal of each well−the average pSTAT4 signal of baseline. The inhibition %=(the average pSTAT4 signal of IL-12 treatment wells−the relative of pSTAT4 signal in each compound containing well)/the average pSTAT4 signal of IL-12 treatment wells*100%

Sequence of TYK2 (JH2 domain) (P29597 589-875): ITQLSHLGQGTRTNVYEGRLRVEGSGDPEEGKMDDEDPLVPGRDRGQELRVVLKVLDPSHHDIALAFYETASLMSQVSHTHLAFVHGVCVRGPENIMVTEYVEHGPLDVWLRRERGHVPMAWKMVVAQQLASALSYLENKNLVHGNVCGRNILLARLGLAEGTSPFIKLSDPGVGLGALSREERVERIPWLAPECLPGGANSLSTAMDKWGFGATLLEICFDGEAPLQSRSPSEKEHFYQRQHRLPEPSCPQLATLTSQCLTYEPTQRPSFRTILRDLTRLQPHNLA

Row | SMILES | pKd [1] | pIC50 [2] | pKd [3] | pKd [4] | pIC50 [5] | pIC50 [6]
1 | [2H]C([2H])([2H])NC(=O)c1nnc(NC(=O)N2CC(C)(C)C2)cc1Nc1cccc(-c2ncn(C)n2)c1OC [Example 38] | ≥ 9.00 | > 7.00 | 5.00 to 6.00 | > 7.00 | – | –
2 | [2H]C([2H])([2H])NC(=O)c1nnc(N2CCN(C3COC3)C2=O)cc1Nc1cccc(-c2ncn(C)n2)c1OC [Example 79] | ≥ 9.00 | – | – | – | 6.00 to 7.00 | 6.00 to 7.00
3 | [2H]C([2H])([2H])NC(=O)c1nnc(N2CCN(C3CCOC3)C2=O)cc1Nc1cccc(-c2ncn(C)n2)c1OC (stereo not shown) [Example 80] | ≥ 9.00 | – | – | – | > 7.00 | > 7.00
4 | [2H]C([2H])([2H])NC(=O)c1nnc(N2CCN(C(C)C3CC3)C2=O)cc1Nc1cccc(-c2ncn(C)n2)c1OC (stereo not shown) [Example 82] | ≥ 9.00 | – | – | – | > 7.00 | > 7.00
5 | [2H]C([2H])([2H])NC(=O)c1nnc(N2CCN(C(C)C#C)C2=O)cc1Nc1cccc(-c2ncn(C)n2)c1OC (stereo not shown) [Example 84] | ≥ 9.00 | – | – | – | > 7.00 | > 7.00
6 | [2H]C([2H])([2H])NC(=O)c1nnc(N2CCN(C3CCOCC3)C2=O)cc1Nc1cccc(-c2ncn(C)n2)c1OC [Example 86] | ≥ 9.00 | – | – | – | 6.00 to 7.00 | > 7.00
7 | [2H]C([2H])([2H])NC(=O)c1nnc(N2CCN(C(C3CC3)C(F)(F)F)C2=O)cc1Nc1cccc(-c2ncn(C)n2)c1OC (stereo not shown) [Example 87] | ≥ 9.00 | – | – | – | 6.00 to 7.00 | > 7.00

— patent US11053219B2, “Substituted pyridines as TYK2 inhibitors” (FronThera U.S. Pharmaceuticals LLC, priority 2018, dated 2021)
